Results as given in PubChem BioAssay (NCI).
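How tested: cells in 96-well plates exposed to compound for 48 hours at five concentrations. The concentration for full growth arrest is given as TGI.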

Key:
Test in all cases: NCI-60 cell line screen, 48 h
[1] = tested on: NCI-H23 lung
[2] = tested on: A549 NSCLC
[3] = tested on: RXF 393 renal
[4] = tested on: M14 melanoma
[5] = tested on: HT29 colon
[6] = tested on: XF 498 CNS
[7] = tested on: MALME-3M melanoma
[8] = tested on: KM12 colon
[9] = tested on: NCI-H226 lung
[10] = tested on: SW-620 colon
[11] = tested on: U251 CNS
[12] = tested on: HCT-116 colon
[13] = tested on: COLO 205 colon
[14] = tested on: ACHN renal
[15] = tested on: SF-295 CNS
[16] = tested on: SK-MEL-28 melanoma
[17] = tested on: OVCAR-8 ovarian
[18] = tested on: SK-MEL-2 melanoma
[19] = tested on: M19-MEL melanoma
[20] = tested on: KM20L2 colon
[21] = tested on: SN12C renal
[22] = tested on: HCC-2998 colon
[23] = tested on: HOP-92 NSCLC
[24] = tested on: LXFL 529 NSCLC
[25] = tested on: TK-10 renal
[26] = tested on: SNB-75 CNS
[27] = tested on: CAKI-1 renal
[28] = tested on: OVCAR-3 ovarian
[29] = tested on: NCI-H460 lung
[30] = tested on: LOX IMVI melanoma
[31] = tested on: OVCAR-5 ovarian
[32] = tested on: OVCAR-4 ovarian
[33] = tested on: UO-31 renal
[34] = tested on: IGROV1 ovarian
[35] = tested on: UACC-257 melanoma
[36] = tested on: EKVX NSCLC
[37] = tested on: UACC-62 melanoma
[38] = tested on: 786-0 renal
[39] = tested on: SNB-78 CNS
[40] = tested on: HCT-15 colon
[41] = tested on: SK-OV-3 ovarian
[42] = tested on: HOP-62 NSCLC
[43] = tested on: SF-268 CNS
[44] = tested on: RPMI-8226 leukemia
[45] = tested on: SNB-19 CNS
[46] = tested on: DMS 114 small cell lung
[47] = tested on: DMS 273 small cell lung
[48] = tested on: HOP-18 NSCLC
[49] = tested on: SF-539 CNS
[50] = tested on: RXF-631 renal
[51] = tested on: K-562 leukemia
[52] = tested on: CCRF-CEM leukemia
[53] = tested on: NCI-H522 lung
[54] = tested on: HL-60(TB) leukemia
[55] = tested on: SK-MEL-5 melanoma
[56] = tested on: DLD-1 colon
[57] = tested on: A498 renal
[58] = tested on: MOLT-4 leukemia
[59] = tested on: MDA-MB-231 breast
[60] = tested on: DU-145 prostate
[61] = tested on: PC-3 prostate
[62] = tested on: MDA-MB-435
[63] = tested on: MCF7 breast
[64] = tested on: BT-549 breast
[65] = tested on: T-47D breast
[66] = tested on: SR leukemia

Cc1ccc2nc(NC(=O)C(=O)C(C#N)c3ccc(Cl)cc3)sc2c1 (centres undefined)
TGI [1]: > 50 µM
TGI [2]: > 50 µM
TGI [3]: > 50 µM
TGI [4]: > 50 µM
TGI [5]: > 50 µM
TGI [6]: > 50 µM
TGI [7]: > 50 µM
TGI [8]: > 50 µM
TGI [9]: > 50 µM
TGI [10]: > 50 µM
TGI [11]: > 50 µM
TGI [12]: > 50 µM
TGI [13]: > 50 µM
TGI [14]: > 50 µM
TGI [15]: > 50 µM
TGI [16]: > 50 µM
TGI [17]: > 50 µM
TGI [18]: > 50 µM
TGI [19]: > 50 µM
TGI [20]: > 50 µM
TGI [21]: > 50 µM
TGI [22]: > 50 µM
TGI [23]: > 50 µM
TGI [24]: > 50 µM
TGI [25]: > 50 µM
TGI [26]: > 50 µM
TGI [27]: > 50 µM
TGI [28]: > 50 µM
TGI [29]: > 50 µM
TGI [30]: > 50 µM
TGI [31]: > 50 µM
TGI [32]: > 50 µM
TGI [33]: > 50 µM
TGI [34]: > 50 µM
TGI [35]: > 50 µM
TGI [36]: > 50 µM
TGI [37]: > 50 µM
TGI [38]: > 50 µM
TGI [39]: > 50 µM
TGI [40]: > 50 µM
TGI [41]: > 50 µM
TGI [42]: > 50 µM
TGI [43]: > 50 µM
TGI [44]: > 50 µM
TGI [45]: > 50 µM
TGI [46]: > 50 µM
TGI [47]: > 50 µM
TGI [48]: > 50 µM
TGI [49]: > 50 µM

CC(C)c1cccc(C(C)C)c1N1C(=O)C(=O)C(c2nc3ccccc3o2)C(=O)C1=O
TGI [1]: > 100 µM
TGI [2]: > 100 µM
TGI [3]: > 100 µM
TGI [4]: > 100 µM
TGI [50]: > 100 µM
TGI [5]: > 100 µM
TGI [6]: 89.9 µM
TGI [7]: > 100 µM
TGI [8]: > 100 µM
TGI [9]: > 100 µM
TGI [10]: > 100 µM
TGI [11]: > 100 µM
TGI [12]: > 100 µM
TGI [13]: > 100 µM
TGI [14]: > 100 µM
TGI [15]: > 100 µM
TGI [16]: > 100 µM
TGI [17]: > 100 µM
TGI [51]: > 100 µM
TGI [18]: > 100 µM
TGI [19]: > 100 µM
TGI [20]: > 100 µM
TGI [21]: > 100 µM
TGI [22]: > 100 µM
TGI [23]: > 100 µM
TGI [24]: > 100 µM
TGI [25]: > 100 µM
TGI [26]: > 100 µM
TGI [52]: > 100 µM
TGI [27]: > 100 µM
TGI [28]: > 100 µM
TGI [53]: 50.6 µM
TGI [29]: > 100 µM
TGI [30]: > 100 µM
TGI [31]: > 100 µM
TGI [32]: > 100 µM
TGI [54]: > 100 µM
TGI [33]: > 100 µM
TGI [34]: > 100 µM
TGI [35]: > 100 µM
TGI [36]: > 100 µM
TGI [37]: > 100 µM
TGI [38]: 84.3 µM
TGI [39]: > 100 µM
TGI [55]: > 100 µM
TGI [40]: > 100 µM
TGI [41]: > 100 µM
TGI [42]: > 100 µM
TGI [43]: > 100 µM
TGI [44]: > 100 µM
TGI [45]: > 100 µM
TGI [46]: 84.5 µM
TGI [47]: > 100 µM
TGI [56]: > 100 µM
TGI [49]: > 100 µM
TGI [57]: > 100 µM

CN(C)CC1CCC(CN(C)C)C(=O)C1=O (centres undefined)
TGI [1]: 22.1 µM
TGI [2]: 25.1 µM
TGI [3]: 3.47 µM
TGI [58]: 4.96 µM
TGI [4]: 12.5 µM
TGI [59]: 19.5 µM
TGI [5]: 16.5 µM
TGI [6]: 4.95 µM
TGI [7]: 3.6 µM
TGI [8]: 28.1 µM
TGI [60]: 30.1 µM
TGI [61]: 31.1 µM
TGI [9]: 10.8 µM
TGI [10]: 3.33 µM
TGI [11]: 26.7 µM
TGI [12]: 7.55 µM
TGI [13]: 3.5 µM
TGI [14]: 11.9 µM
TGI [15]: 32.4 µM
TGI [16]: 20.6 µM
TGI [17]: 9.08 µM
TGI [51]: 6.15 µM
TGI [18]: 34.6 µM
TGI [19]: 33.9 µM
TGI [62]: 31.7 µM
TGI [20]: 30.8 µM
TGI [21]: 32.7 µM
TGI [22]: 35.4 µM
TGI [23]: 3.81 µM
TGI [24]: 3.09 µM
TGI [25]: 9.96 µM
TGI [26]: 30.6 µM
TGI [52]: 4.51 µM
TGI [27]: 3.82 µM
TGI [28]: 5.32 µM
TGI [53]: 1.38 µM
TGI [29]: 36.4 µM
TGI [30]: 22.2 µM
TGI [31]: 30.9 µM
TGI [63]: 8.6 µM
TGI [32]: 18.3 µM
TGI [54]: 7.17 µM
TGI [33]: 11 µM
TGI [34]: 33.2 µM
TGI [64]: 20.9 µM
TGI [35]: 6.44 µM
TGI [65]: 5.36 µM
TGI [36]: 47.2 µM
TGI [37]: 31.3 µM
TGI [38]: 29.7 µM
TGI [55]: 30 µM
TGI [40]: 7.78 µM
TGI [41]: 38.7 µM
TGI [42]: 35.3 µM
TGI [43]: 10.9 µM
TGI [44]: 18.1 µM
TGI [45]: 29.9 µM
TGI [46]: 12.9 µM
TGI [47]: 31.2 µM
TGI [56]: 7.25 µM
TGI [66]: 5.08 µM
TGI [48]: 3.07 µM
TGI [49]: 12.6 µM
TGI [57]: 31.8 µM
